We go through eight compounds from patent publication US20140017673A1, “METHOD FOR ENUMERATING EUKARYOTIC CELL MICRONUCLEI WITH AN EMPHASIS ON SIMULTANEOUSLY ACQUIRING CYTOTOXICITY AND MODE OF ACTION INFORMATION” (priority 2012, published 2014).

Data set [1] concerns TK6 cells. The note with it: for Avg. % EMA+ / Avg. % M / Avg. % MN / Avg. % RS / Avg. M as % G2/M: human.
The subject of data set [2] is TK6 cells. Briefly: Polyploidy as an aneugenic signature (flow cytometry, 96-well plate). The note with it: 0.025 μg paclitaxel/ml, approximately 24 hrs. In general terms: A flow cytometer gives signals particle by particle.

Counter-ions that a name gives are not always drawn. Like-named read-outs stand apart in the source and are kept apart here.

`CC[C@]1(O)C[C@@H]2CN(CCc3c([nH]c4ccccc34)[C@@](C(=O)OC)(c3cc4c(cc3OC)N(C)[C@H]3[C@@](O)(C(=O)OC)[C@H](OC(C)=O)[C@]5(CC)C=CCN6CC[C@]43[C@@H]65)C2)C1` [Vinblastine sulfate]: in the data set on TK6 cells [1] (0.1 μg/ml), the “Avg. % EMA+” value is 2.0%, the “Avg. % M” value amounted to 1.8%, the “Avg. % MN” value was found to be 0.7% and the “Avg. % RS” value turned out to be 88.0%. The “Avg. M as % G2/M” value in the data set with TK6 cells [1] (0.1 μg/ml) is 8.6%. Moreover, in the data set on TK6 cells [1] (0.2 μg/ml), the “Avg. % EMA+” value amounted to 2.7%, the “Avg. % M” value came out at 1.5%, the “Avg. % MN” value stood at 1.6% and the “Avg. % RS” value is on record as 79.6%. Moreover, in the data set on TK6 cells [1] (0.2 μg/ml), the “Avg. M as % G2/M” value turned out to be 9.0%. Further, in the data set on TK6 cells [1] (0.4 μg/ml), the “Avg. % EMA+” value turned out to be 4.0%, the “Avg. % M” value stood at 2.7%, the “Avg. % MN” value amounted to 3.3% and the “Avg. % RS” value was 70.6%. The “Avg. M as % G2/M” value in the data set with TK6 cells [1] (0.4 μg/ml) is recorded as 17.1%. Moreover, in the data set on TK6 cells [1] (0.8 μg/ml), the “Avg. % EMA+” value was 5.8%, the “Avg. % M” value came out at 7.2%, the “Avg. % MN” value was 7.5% and the “Avg. % RS” value was 48.0%. Moreover, in the data set on TK6 cells [1] (0.8 μg/ml), the “Avg. M as % G2/M” value worked out at 32.0%. In addition, in the data set on TK6 cells [1] (1.6 μg/ml), the “Avg. % EMA+” value was 8.8%, the “Avg. % M” value is recorded as 4.4%, the “Avg. % MN” value is reported as 12.6% and the “Avg. % RS” value was determined as 37.6%. Further, the “Avg. M as % G2/M” value in the data set on TK6 cells [1] (1.6 μg/ml) is on record as 14.1%.

Turning to `COc1cc([C@@H]2c3cc4c(cc3[C@@H](O[C@@H]3O[C@@H]5CO[C@@H](C)O[C@H]5[C@H](O)[C@H]3O)[C@H]3COC(=O)[C@H]23)OCO4)cc(OC)c1O` [Etoposide], in the data set on TK6 cells [1] (0.005 μg/ml), the “Avg. % EMA+” value worked out at 2.3%, the “Avg. % M” value turned out to be 1.6%, the “Avg. % RS” value is given as 83.3% and the “Avg. M as % G2/M” value came out at 5.7%. Also, in the data set with TK6 cells [1] (0.01 μg/ml), the “Avg. % EMA+” value turned out to be 3.7%, the “Avg. % M” value came out at 1.4%, the “Avg. % RS” value was 69.6% and the “Avg. M as % G2/M” value was 5.2%. In addition, in the data set on TK6 cells [1] (0.02 μg/ml), the “Avg. % EMA+” value came to 5.3%, the “Avg. % M” value stood at 1.2%, the “Avg. % RS” value came out at 52.6% and the “Avg. M as % G2/M” value was 3.8%.

Take `CC[C@]1(O)C[C@H]2CN(CCc3c([nH]c4ccccc34)[C@@](C(=O)OC)(c3cc4c(cc3OC)N(C=O)[C@H]3[C@@](O)(C(=O)OC)[C@H](OC(C)=O)[C@]5(CC)C=CCN6CC[C@]43[C@@H]65)C2)C1` [Vincristine sulfate]: in the data set on TK6 cells [1] (0.125 μg/ml), the “Avg. % EMA+” value is reported as 3.3%, the “Avg. % M” value was 1.9%, the “Avg. % MN” value came to 0.6% and the “Avg. % RS” value is on record as 91.9%. In addition, the “Avg. M as % G2/M” value in the data set with TK6 cells [1] (0.125 μg/ml) stood at 7.1%. Also, in the data set on TK6 cells [1] (0.5 μg/ml), the “Avg. % EMA+” value worked out at 5.1%, the “Avg. % M” value was found to be 2.1%, the “Avg. % MN” value is recorded as 2.7% and the “Avg. % RS” value came out at 72.1%. Further, the “Avg. M as % G2/M” value in the data set on TK6 cells [1] (0.5 μg/ml) is on record as 8.4%. Also, in the data set with TK6 cells [1] (1 μg/ml), the “Avg. % EMA+” value is reported as 8.2%, the “Avg. % M” value turned out to be 3.4%, the “Avg. % MN” value amounted to 7.9% and the “Avg. % RS” value turned out to be 53.1%. For the same compound, the “Avg. M as % G2/M” value with TK6 cells [1] (1 μg/ml) is 13.5%.

For `NC(=O)NO` [HU, Hydroxyurea], in the data set on TK6 cells [1] (0.5 μg/ml), the “Avg. % EMA+” value came to 2.4%, the “Avg. % M” value is reported as 1.6%, the “Avg. % MN” value is on record as 0.4% and the “Avg. % RS” value is 100.9%. Besides, the “Avg. M as % G2/M” value in the data set with TK6 cells [1] (0.5 μg/ml) came to 5.4%. Also, in the data set with TK6 cells [1] (0.9 μg/ml), the “Avg. % EMA+” value is reported as 2.3%, the “Avg. % M” value is given as 1.6%, the “Avg. % MN” value came out at 0.5% and the “Avg. % RS” value is given as 97.1%. Also, the “Avg. M as % G2/M” value in the data set on TK6 cells [1] (0.9 μg/ml) is given as 5.9%. In the data set with TK6 cells [1] (3.8 μg/ml), the “Avg. % EMA+” value was determined as 5.8%, the “Avg. % M” value is on record as 1.7%, the “Avg. % MN” value was determined as 0.9% and the “Avg. % RS” value was 65.7%. Further, the “Avg. M as % G2/M” value in the data set with TK6 cells [1] (3.8 μg/ml) stood at 4.7%. Moreover, in the data set with TK6 cells [1] (7.5 μg/ml), the “Avg. % EMA+” value stood at 13.7%, the “Avg. % M” value is on record as 1.0%, the “Avg. % MN” value is reported as 1.9% and the “Avg. % RS” value turned out to be 44.3%. In the data set on TK6 cells [1] (7.5 μg/ml), the “Avg. M as % G2/M” value turned out to be 3.9%.

In the case of `COc1cc2c(c(OC)c1OC)-c1ccc(OC)c(=O)cc1[C@@H](NC(C)=O)CC2` [Colchicine], in the data set with TK6 cells [1], the “cytotoxicity (dose-dependent reductions to RS), FIG. 3” value is reported as “cytotoxic” and the “genotoxicity (increased MN observed), FIG. 3 dose-response” value is reported as “genotoxic”.

For `COC1=CC(=O)C[C@@H](C)[C@]12Oc1c(Cl)c(OC)cc(OC)c1C2=O` [Griseofulvin], in the data set on TK6 cells [1] (0.375 μg/ml), the “Avg. % EMA+” value was found to be 3.0%, the “Avg. % M” value was determined as 1.9%, the “Avg. % RS” value is 96.6% and the “Avg. M as % G2/M” value was 6.0%. Besides, in the data set with TK6 cells [1] (0.75 μg/ml), the “Avg. % EMA+” value worked out at 2.6%, the “Avg. % M” value worked out at 1.8%, the “Avg. % RS” value is given as 99.5% and the “Avg. M as % G2/M” value was determined as 5.8%. Besides, in the data set on TK6 cells [1] (3 μg/ml), the “Avg. % EMA+” value was found to be 8.2%, the “Avg. % M” value turned out to be 3.0%, the “Avg. % RS” value was 64.9% and the “Avg. M as % G2/M” value came out at 19.4%. In the data set with TK6 cells [1] (6 μg/ml), the “Avg. % EMA+” value was determined as 13.5%, the “Avg. % M” value was found to be 5.8%, the “Avg. % RS” value is on record as 46.6% and the “Avg. M as % G2/M” value amounted to 26.4%.

In the case of `COC(=O)Nc1nc2ccccc2[nH]1` [Carbendazim], in the data set with TK6 cells [1] (0.125 μg/ml), the “Avg. % EMA+” value was found to be 2.3%, the “Avg. % M” value was found to be 1.6%, the “Avg. % MN” value is given as 0.8% and the “Avg. % RS” value was 96.9%. In the data set on TK6 cells [1] (0.125 μg/ml), the “Avg. M as % G2/M” value came to 6.1%. In the data set with TK6 cells [1] (0.5 μg/ml), the “Avg. % EMA+” value was 6.4%, the “Avg. % M” value came out at 1.6%, the “Avg. % MN” value was 3.8% and the “Avg. % RS” value was 71.2%. The “Avg. M as % G2/M” value in the data set on TK6 cells [1] (0.5 μg/ml) came out at 10.3%. In the data set on TK6 cells [1] (1 μg/ml), the “Avg. % EMA+” value is 10.0%, the “Avg. % M” value amounted to 5.6%, the “Avg. % MN” value came out at 14.7% and the “Avg. % RS” value worked out at 49.7%. The “Avg. M as % G2/M” value in the data set with TK6 cells [1] (1 μg/ml) is listed as 24.9%. In the data set with TK6 cells [1] (2 μg/ml), the “Avg. % EMA+” value was 12.0%, the “Avg. % M” value came out at 5.4%, the “Avg. % MN” value turned out to be 22.3% and the “Avg. % RS” value turned out to be 43.3%. Moreover, the “Avg. M as % G2/M” value in the data set with TK6 cells [1] (2 μg/ml) turned out to be 18.5%.

With `CC(=O)O[C@H]1C(=O)[C@@]2(C)[C@H]([C@H](OC(=O)c3ccccc3)[C@]3(O)C[C@H](OC(=O)[C@H](O)[C@@H](NC(=O)c4ccccc4)c4ccccc4)C(C)=C1C3(C)C)[C@]1(OC(C)=O)CO[C@@H]1C[C@@H]2O` [Paclitaxel], the “induction of polyploid nuclei (8n), FIG. 6” value with TK6 cells [2] is listed as “robust induction”. Besides, the “Avg. % EMA+” value was 3.7% in the data set on TK6 cells [1] (1.6 μg/ml); 7.3% with TK6 cells [1] (2.4 μg/ml); 10.0% in the data set on TK6 cells [1] (3.3 μg/ml); 12.3% in the data set with TK6 cells [1] (4.9 μg/ml); 13.2% in the data set with TK6 cells [1] (6.5 μg/ml). In addition, the “Avg. % M” value in the data set on TK6 cells [1] (1.6 μg/ml) was 1.7%; in the data set on TK6 cells [1] (2.4 μg/ml), 2.2%; with TK6 cells [1] (3.3 μg/ml), 3.4%; in the data set with TK6 cells [1] (4.9 μg/ml), 4.4%; in the data set on TK6 cells [1] (6.5 μg/ml), 4.6%. For the same compound, the “Avg. % MN” value with TK6 cells [1] (1.6 μg/ml) came out at 1.5%; with TK6 cells [1] (2.4 μg/ml), 4.4%; with TK6 cells [1] (3.3 μg/ml), 9.2%; in the data set with TK6 cells [1] (4.9 μg/ml), 12.5%; in the data set with TK6 cells [1] (6.5 μg/ml), 15.8%. Moreover, the “Avg. M as % G2/M” value came to 7.1% in the data set on TK6 cells [1] (1.6 μg/ml); 9.7% in the data set on TK6 cells [1] (2.4 μg/ml); 12.2% in the data set with TK6 cells [1] (3.3 μg/ml); 11.3% in the data set on TK6 cells [1] (4.9 μg/ml); 10.2% with TK6 cells [1] (6.5 μg/ml).
